This is an account of results in patent US9676820B2, “Method for inhibiting proliferation of high LIX1L-expressing tumor cell, and tumor cell proliferation-inhibiting peptide” (National University Corporation Hamamatsu University School …, priority 2013, dated 2017).

One data set deals with K562 strain. The experiment in a line: Viable cell counts (Trypan blue staining), K562 strain. The format is cell-based. Conditions: shRNA 2.5 μg/well, vs untreated. Here is the method:
(§1) Specifically, cells plated such that the density thereof became 1×10^4 cells/3.5 cm well for one plate (6 wells/plate) for each cell strain were cultured for one night in a culture solution having the same composition as those of the culture solutions described in the reference examples. After culturing of 1 well out of the 6 wells was completed, Trypan blue staining was performed on the 1 well, and viable cell counts were counted. The remaining 5 wells were cultured after exchanging the culture solution with a liquid mixture of a Lipofectamine (registered trademark) reagent (12.5 μL/well) and a culture solution (2 mL/well) of which the shRNA concentration became 2.5 μg/well. Then, Trypan blue staining was performed on 1 well 24 hours after the exchange of a culture medium, 1 well 48 hours after the exchange of a culture medium, and the remaining 1 well 72 hours after the exchange of a culture medium, and the viable cell counts were counted. As a control, the viable cell counts were measured (untreated) by performing the culturing similarly to the above except that a culture medium was exchanged with a culture solution to which no shRNA was added.
(§2) Specifically, the viable cell counts were measured after culturing the cells similarly to Example 1 except that a 5 μM culture solution containing a control peptide, a peptide 1, or a peptide 2 was used instead of the culture solution (2 mL/well) of which the shRNA concentration was 2.5 μg/well. The viable cell counts were measured (untreated) by performing the culturing similarly to Example 1 using a culture solution containing no peptide 2, as a control.

The next data set concerns HL-60 strain. The experiment in a line: Viable cell counts (Trypan blue staining), HL-60 strain. The format is cell-based. Conditions: shRNA 2.5 μg/well, vs untreated. As for the experimental part: as §1, §2
The subject of a further data set is OCUM-1 strain. The experiment in a line: Viable cell counts (Trypan blue staining), OCUM-1 strain. Conditions: shRNA 2.5 μg/well, vs untreated. It is filed as cell-based. Here is the method: as §1
Another data set has as its system KATO-III strain. The experiment in a line: Viable cell counts (Trypan blue staining), KATO-III strain. Conditions: shRNA 2.5 μg/well, vs untreated. The format is cell-based. As for the experimental part:
as §1

A further data set relates to LIX1L genes. The experiment in a line: RT-PCR of LIX1L gene expression after shRNA treatment. Conditions: HL-60, K562, KATO-III and OCUM-1 strains; shRNA 2.5 μg/well; after 72 hours. The format is cell-based, human. Here is the method:
In the RT-PCR, first, RNA was extracted and purified from the collected cells using RNeasy Mini Kit (manufactured by QIAGEN). The concentration of total RNA was measured using a spectrophotometer. A reverse transcription reaction was performed using First Strand cDNA Synthesis Kit (manufactured by Roche Life Science) for RT-PCR (AMV), for synthesizing cDNA, in 20 μL of a reaction solution containing 1 μg of total RNA and a random primer for 10 minutes at 25° C., subsequently for 45 minutes at 42° C., and then for 2 minutes at 95° C., to deactivate reverse transcriptase. In all PCRs, TaqMan (registered trademark) polymerase (manufactured by Life Technologies Ltd.) was used. […] The signal intensity of a band of LIX1L in an ethidium bromide staining image was measured using densitometry and a relative value of the signal intensity was calculated. In addition, in all quantitative PCR reactions, SYBR (registered trademark) Green I was used. Quantitative determination was performed in 25 μL of a reaction solution containing the synthesized cDNA and a LIX1L primer using an ABI PRISM 7700 Sequence detector (manufactured by Perkin-Elmer/Applied Biosystems). […]

“LIX1L shRNA #1: shRNA with respect to LIX1L genes; base sequence shown in FIG. 5A (DNA GAGGAGGTGTTGGCTCATTATTTTCAAGAGAAATAATGAGCCAACACCTCCTCTTTTTT)”: the viable cell counts result is given as “decreased more clearly than that of the untreated cells” with K562 strain (after 48 hours and 72 hours); “no particular difference” in the data set with K562 strain (until 24 hours); “decreased more clearly than that of the untreated cells” in the data set on HL-60 strain (after 48 hours and 72 hours); “no particular difference” in the data set with HL-60 strain (until 24 hours); “decreased more clearly than that of the untreated cells” in the data set on OCUM-1 strain (after 48 hours and 72 hours); “no particular difference” with OCUM-1 strain (until 24 hours). In addition, the viable cell counts entry was “decreased more clearly than that of the untreated cells” with KATO-III strain (after 48 hours and 72 hours); “no particular difference” in the data set on KATO-III strain (until 24 hours). The “expression of LIX1L genes (RT-PCR)” value in the data set on LIX1L genes is “hardly observed”.

As to “LIX1L shRNA #2: shRNA with respect to LIX1L genes; base sequence shown in FIG. 5B (DNA GAGTCCCGTGGTGCTGACTTAATTCAAGAGATTAAGTCAGCACCACGGGACTCTTTTTT)”, the viable cell counts entry was “decreased more clearly than that of the untreated cells” in the data set with K562 strain (after 48 hours and 72 hours); “no particular difference” with K562 strain (until 24 hours); “decreased more clearly than that of the untreated cells” in the data set on HL-60 strain (after 48 hours and 72 hours); “no particular difference” in the data set on HL-60 strain (until 24 hours); “decreased more clearly than that of the untreated cells” in the data set on OCUM-1 strain (after 48 hours and 72 hours); “no particular difference” in the data set on OCUM-1 strain (until 24 hours). Further, the viable cell counts entry with KATO-III strain (after 48 hours and 72 hours) is on record as “decreased more clearly than that of the untreated cells”; in the data set with KATO-III strain (until 24 hours) it was “no particular difference”. Further, the “expression of LIX1L genes (RT-PCR)” value in the data set on LIX1L genes is “hardly observed”.
